Results reported in patent publication US10376552B2, “Memory improving composition comprising arillus longan, semen nelumbinis, poria and semen juglandis” (priority 2015, dated 2019).

What was measured:
[1] = tested on: scopolamine memory acquired disorder model of mice; assay: Morris water maze, orientation navigation test; format: in vivo; settings: 0.1 mg/kg
Experimental: (§1) Mice were randomly divided into 5 groups evenly, namely, normal control group, model group, low dosage group, high dosage group, positive control drug Huperzine A group (0.1 mg/kg). The mice were intragastrically administered once daily (0.2 mL/10 g). After 30 consecutive days, except the normal control group, the memory acquired disorder model of mice was replicated respectively with scopolamine, and the learning performance of mice was determined with the Morris water maze test (scopolamine-induced orientation navigation and spatial memory experiment).
(§2) In accordance with technical requirements including “technical specifications of health food inspection and evaluation”, the dosage was calculated by conversion of the intended clinical daily dosage on the basis of the body surface area. When orally administered to mice, low and high dosages were arranged for each sample, respectively, which correspond to about 10 and 20 times of intended daily dosage for adults. Namely: low dosage group (1.3 g/kg), high dosage group (2.6 g/kg).
(§3) As for the positive control drug Huperzine A, the clinical adult dosage is about 0.4 mg/day, and the dosage for mice is 0.06 mg/kg, which is calculated by conversion on the basis of the body surface area. 0.1 mg/kg was used in the present experiment.
(§4) Morris water maze test was carried out according to the method in references. The orientation navigation test was started from the 25th day, and lasted for 4 consecutive days. The time of finding the platform of mice within 90 s (the escape latency), swimming distance, the swimming time proportion in the quadrant of the original platform, times of crossing the location of the original platform (i.e., shuttle times), and the time of first arrival at the original platform were recorded.
(§5) Mice were randomly divided into 5 groups, namely, normal control group, model group, low dosage group (1.3 g/kg), high dosage group (2.6 g/kg), positive control drug Huperzine A group (0.1 mg/kg). The mice were intragastrically administered once daily (0.2 mL/10 g). After 30 consecutive days, except the normal control group, the memory acquired disorder model of mice was replicated respectively with scopolamine, and the learning performance of mice was determined with the Morris water maze test (scopolamine-induced orientation navigation and spatial memory experiment).
(§6) In this example, respective groups of animals were adaptively fed for 3 days before intragastrical administration. The normal control group and model control group were intragastrically administered once daily with equal volume of 0.5% CMCNA, respectively. The administration was carried out with a volume of 0.2 mL/10 g body weight for 30 consecutive days. Morris water maze test was carried out according to the method in literatures. The orientation navigation test was started from the 25th day, and lasted for 4 days. The time of finding the platform of mice within 90 s (the escape latency), swimming distance, the swimming time proportion in the quadrant of the original platform, times of crossing the location of the original platform (i.e., shuttle times), and the time of first arrival at the original platform were recorded.

[2] = tested on: scopolamine hydrobromide induced memory acquired disorder in mice; assay: Step-down test; format: in vivo, Kunming mice; settings: 0.1 mg/kg
Experimental: as §5, with “group,” for “group (1.3 g/kg),”, “group,” for “group (2.6 g/kg),”, “[…] of scopolamine hydrobromide,” for “scopolamine,”, “step-down test.” for “Morris water maze test (scopolamine-induced orientation navigation and spatial memory experiment).”
as §2
(§7) The time of the first jumping of mice (i.e., latency) and the times of jumping of mice within 5 minutes (i.e., errors times) were tested and recorded with jumping apparatus, and the latency and error times were used as the investigation indexes of the experiment.
60 screened healthy adult Kunming mice were used, with body weight (20-24) g, male, 12 […] in each group. Mice were randomly divided into 5 groups, namely, normal control group (C), model group (M), low dosage group (1.3 g/kg), high dosage (2.6 g/kg), positive control drug Huperzine A group (0.1 mg/kg). Except that the normal control group and model group were intragastrically administered with 0.5% CMCNA (0.2 mL/10 g), other groups were intragastrically administered with corresponding drugs once daily for 30 consecutive days. Training was started 1 h after administration in the morning on day 30. Except the normal control group, the memory acquired disorder model of mice was replicated respectively with 2 mg/kg scopolamine hydrobromide 20 minutes before training. Each group was administered in parallel, and the learning performance of mice was determined by step-down test. […]
(1) adaptive period: the animals were placed on the platform, at that time the electric fence was not energized, the latency of jumping down the platform was recorded, the animals were allowed to freely explore 10 s in the test box after jumping down the platform, and were then returned to the cage; […]
as §7, with “The learning performance was tested after 24 h. The” for “The”

[3] = clinical use as cholinesterase inhibitor; cited from earlier work
[4] = tested on: scopolamine hydrobromide-induced mice memory acquired disorder model; assay: Morris water maze, space exploration test; format: in vivo; settings: 0.1 mg/kg
Experimental: as §1, §2, §3, §4, §5, §6

**Q.** Which results are given for `C/C=C1\[C@H]2C=C(C)C[C@]1(N)c1ccc(=O)[nH]c1C2` [Huperzine A]?
**A.** swimming distance ([1]; Day 1): 892.9 ± 226.6 cm; swimming latency ([1]; Day 1): 68.3 ± 15.6 s; swimming distance ([1]; Day 2): 747.2 ± 93.5 cm; swimming latency ([1]; Day 2): 59.1 ± 13.8 s; swimming distance ([1]; Day 3): 683.3 ± 112.8 cm; swimming latency ([1]; Day 3): 56.3 ± 13.1 s; swimming distance ([1]; Day 4): 669.6 ± 128.3 cm; swimming latency ([1]; Day 4): 48.8 ± 11.1 s; Latency [2]: 146.20 ± 99.97 s; error times compared with the model group ([2]; p<0.05): significantly reduced; latency compared with the model group ([2]; p<0.05): significantly prolonged; Error times ([2]; within 5 minutes): 1.00 ± 0.82; side-effects after ingestion [3]: nausea, dizziness, sweating, abdominal pain, and blurred vision; Shuttle times [4]: 2.2 ± 0.5; Time proportion of crossing the original quadrant [4]: 22.6 ± 7.9%; time of first arrival at the platform [4]: 27.0 ± 12.1 s; time of first arrival at the platform ([4]; p<0.05): significantly prolonging; times of crossing the location of the original platform ([4]; p<0.05): significantly decreased
